Data from US7964556B1, “Antimicrobial peptides and use thereof” (Toagosei Co., Ltd, priority 2004, dated 2011).
Where two headings read alike, the source gives them in different places. Where a SMILES comes first, the peptide text is derived from it.

Tests used:
[1] = tested on: Staphylococcus aureus; assay type: cell-based; details: for antimicrobial activities against gram-positive bacteria (S. aureus), in words: summary of Table 2
Procedure: (§1) Regarding the antimicrobial peptide in samples 1 to 14 and the comparative sample 1, the antimicrobial activities (minimum inhibitory concentration: MIC) with respect to gram-negative bacteria (Escherichia coli) and gram-positive bacteria (Staphylococcus aureus) were determined, as described below, by a liquid medium dilution technique using a 96-well microplate. First, a drug (synthesized peptide) solution having a concentration of 40 times of the highest test concentration was prepared using sterile distilled water, and thereafter liquid-bouillon mediums (“NUTRIENT BROTH Dehydrated” manufactured by DIFCO) having peptide concentrations of 200, 100, 50, 25, 12.5, 6.25, 3.13, 1.56 and 0.78 μM were produced respectively. The produced liquid-bouillon mediums including the peptide of each concentration were then fed to the 96-well microplate at 100 μL a time.
(§2) At the same time, test bacteria cultured for 18 hours at 37° C. on an agar plate (“Muller Hinton Agar” manufactured by DIFCO) were gathered by scratching with a loop, and then suspended in a sterilized physiological saline. Bacterial suspension 5 μL prepared at an equivalent of 2×10^7 cells/mL was respectively inoculated (number of bacteria to be tested: approximately 1×10^6 cells/mL) onto the above-described liquid-bouillon mediums including the peptide of each concentration and fed to each well of the above-described microplate. After inoculation, the microplate was then incubated in an incubator at 37° C., and the presence of bacteria was evaluated based on the turbidity 24 hours later. The minimum drug concentration (peptide concentration), in which an increased in turbidity caused by bacteria was not detected at the time of measurement, was defined as MIC (minimum inhibitory concentration) (unit: μM) in the present embodiment.

[2] = tested on: Escherichia coli; assay type: cell-based
Procedure: as §1, §2

[3] = liquid-bouillon medium (Nutrient Broth), 37° C., turbidity after 24 hours

| Compound | Antimicrobial Activities (MIC) S. aureus ([1]; 24 h) [µM] | Antimicrobial Activities (MIC) E. coli ([2]; 24 h) [µM] | antimicrobial activities against gram-positive bacteria (S. aureus), in words [1] | Antimicrobial Activities (MIC) S. aureus [1, 3] [µM] | Antimicrobial Activities (MIC) E. coli [2, 3] [µM] | antimicrobial activities against E. coli, in words ([2]; summary of Table 2) |
| --- | --- | --- | --- | --- | --- | --- |
| CC(C)[C@H](NC(=O)[C@H](C)NC(=O)[C@@H](NC(=O)[C@H](CCCCN)NC(=O)[C@@H](N)CCCCN)C(C)C)C(=O)N[C@H](C(=O)N[C@@H](CCCNC(=N)N)C(N)=O)C(C)C [Sample 1, KKVAVVR] (H-KKVAVVR-NH2) | 50 | 200 | – | – | – | – |
| CC[C@H](C)[C@H](NC(=O)[C@H](CCC(N)=O)NC(=O)[C@@H](NC(=O)[C@H](CCCCN)NC(=O)[C@H](Cc1ccc(O)cc1)NC(=O)[C@@H](NC(=O)[C@@H](NC(=O)[C@H](CCC(N)=O)NC(=O)[C@@H](N)C(C)C)[C@@H](C)CC)C(C)C)C(C)C)C(=O)N[C@H](C(=O)N[C@@H](Cc1ccc(O)cc1)C(=O)N[C@@H](CCCCN)C(N)=O)C(C)C [Sample 14, VQIVYKVQIVYK] (H-VQIVYKVQIVYK-NH2) | 25 | 50 | particularly high antimicrobial activities | – | – | – |
| CC(C)[C@H](NC(=O)[C@H](C)NC(=O)[C@@H](NC(=O)[C@H](CCCCN)NC(=O)[C@H](CCCCN)NC(=O)[C@@H](NC(=O)[C@H](CCCCN)NC(=O)[C@H](CCCNC(=N)N)NC(=O)[C@H](CCCCN)NC(=O)[C@H](CCCCN)NC(=O)[C@H](CCCCN)NC(=O)[C@@H](N)CCCNC(=N)N)C(C)C)C(C)C)C(=O)N[C@H](C(=O)N[C@@H](CCCNC(=N)N)C(N)=O)C(C)C [Sample 7, RKKKRKVKKVAVVR] (H-RKKKRKVKKVAVVR-NH2) | 3.13 | 6.25 | particularly high antimicrobial activities | – | – | – |
| CC(C)[C@H](NC(=O)[C@H](C)NC(=O)[C@@H](NC(=O)[C@H](CCCCN)NC(=O)[C@H](CCCCN)NC(=O)[C@H](CCCNC(=N)N)NC(=O)[C@@H](NC(=O)[C@@H](NC(=O)[C@H](C)NC(=O)[C@@H](NC(=O)[C@H](CCCCN)NC(=O)[C@@H](N)CCCCN)C(C)C)C(C)C)C(C)C)C(C)C)C(=O)N[C@H](C(=O)N[C@@H](CCCNC(=N)N)C(N)=O)C(C)C [Sample 5, KKVAVVRKKVAVVR] (H-KKVAVVRKKVAVVR-NH2) | 12.5 | 100 | particularly high antimicrobial activities | – | – | – |
| CC(C)[C@H](NC(=O)[C@H](C)NC(=O)[C@@H](NC(=O)[C@H](CCCCN)NC(=O)[C@H](CCCCN)NC(=O)[C@@H](NC(=O)[C@H](CCCNC(=N)N)NC(=O)[C@@H](NC(=O)[C@@H](NC(=O)[C@H](C)NC(=O)[C@@H](NC(=O)[C@H](CCCCN)NC(=O)[C@@H](N)CCCCN)C(C)C)C(C)C)C(C)C)[C@@H](C)O)C(C)C)C(=O)N[C@H](C(=O)N[C@@H](CCCNC(=N)N)C(=O)N[C@H](C(N)=O)[C@@H](C)O)C(C)C [Sample 8, KKVAVVRTKKVAVVRT] (H-KKVAVVRTKKVAVVRT-NH2) | 6.25 | 50 | particularly high antimicrobial activities | – | – | – |
| CC[C@H](C)[C@H](NC(=O)[C@H](CCC(N)=O)NC(=O)[C@@H](NC(=O)[C@H](CCCNC(=N)N)NC(=O)[C@H](CCC(N)=O)NC(=O)[C@H](CC(C)C)NC(=O)[C@H](CCCCN)NC(=O)[C@H](CCCNC(=N)N)NC(=O)[C@H](CCCCN)NC(=O)[C@@H](N)CC(C)C)C(C)C)C(=O)N[C@H](C(=O)N[C@@H](CC(N)=O)C(=O)N[C@@H](CCCCN)C(N)=O)[C@@H](C)CC [Sample 4, LKRKLQRVQIINK] (H-LKRKLQRVQIINK-NH2) | 6.25 | 100 | particularly high antimicrobial activities | – | – | – |
| CC[C@H](C)[C@H](NC(=O)[C@H](CCC(N)=O)NC(=O)[C@@H](NC(=O)[C@H](CCCNC(=N)N)NC(=O)[C@H](CCC(N)=O)NC(=O)[C@H](CC(C)C)NC(=O)[C@H](CCCCN)NC(=O)[C@H](CCCNC(=N)N)NC(=O)[C@H](CCCCN)NC(=O)[C@@H](N)CC(C)C)C(C)C)C(=O)N[C@H](C(=O)N[C@@H](Cc1ccc(O)cc1)C(=O)N[C@@H](CCCCN)C(N)=O)C(C)C [Sample 3, LKRKLQRVQIVYK] (H-LKRKLQRVQIVYK-NH2) | 3.13 | 6.25 | particularly high antimicrobial activities | – | – | – |
| CC[C@H](C)[C@H](NC(=O)[C@H](CCC(N)=O)NC(=O)[C@@H](NC(=O)[C@@H](N)CCCCN)C(C)C)C(=O)N[C@H](C(=O)N[C@@H](CC(N)=O)C(=O)N[C@@H](CCCCN)C(=O)N[C@@H](CCCCN)C(=O)N[C@@H](CC(C)C)C(=O)N[C@@H](CCSC)C(=O)N[C@@H](Cc1c[nH]c2ccccc12)C(=O)N[C@@H](Cc1c[nH]c2ccccc12)C(=O)N[C@@H](CC(C)C)C(=O)N[C@@H](CC(C)C)C(N)=O)[C@@H](C)CC [Sample 12, KVQIINKKLMWWLL] (H-KVQIINKKLMWWLL-NH2) | 3.13 | 12.5 | particularly high antimicrobial activities | – | – | – |
| CC(C)C[C@H](NC(=O)[C@H](CCCNC(=N)N)NC(=O)[C@H](CCC(=O)O)NC(=O)[C@H](CC(C)C)NC(=O)[C@@H]1CCCN1C(=O)[C@@H]1CCCN1C(=O)[C@@H](N)CC(C)C)C(=O)N[C@H](C(=O)N[C@@H](CC(C)C)C(=O)N[C@@H](CC(=O)O)C(N)=O)[C@@H](C)O [Comparative Sample 1, LPPLERLTLD, reference compound] (H-LPPLERLTLD-NH2) | – | – | no antimicrobial activity | >200 | >200 | no antimicrobial activity |
| CC[C@H](C)[C@H](NC(=O)[C@H](CCC(N)=O)NC(=O)[C@@H](NC(=O)[C@H](CCCCN)NC(=O)[C@@H](NC(=O)[C@@H](NC(=O)[C@@H](NC(=O)[C@H](CCCNC(=N)N)NC(=O)[C@H](CCCCN)NC(=O)[C@H](CCCCN)NC(=O)[C@H](CCCNC(=N)N)NC(=O)[C@@H]1CCCN1C(=O)[C@@H]1CCCN1)[C@@H](C)O)C(C)C)C(C)C)C(C)C)C(=O)N[C@H](C(=O)N[C@@H](CC(N)=O)C(=O)N[C@@H](CCCCN)C(=O)N[C@@H](CCCCN)C(N)=O)[C@@H](C)CC [Sample 13, PPRKKRTVVKVQIINKK] (H-PPRKKRTVVKVQIINKK-NH2) | – | – | particularly high antimicrobial activities | 0.78 | 3.13 | – |
| CC[C@H](C)[C@H](NC(=O)[C@H](CCC(N)=O)NC(=O)[C@@H](NC(=O)[C@H](CCCCN)NC(=O)[C@H](CCCCN)NC(=O)[C@H](CCCCN)NC(=O)[C@H](CC(N)=O)NC(=O)[C@@H](NC(=O)[C@@H](NC(=O)[C@H](CCC(N)=O)NC(=O)[C@@H](NC(=O)[C@@H](N)CCCCN)C(C)C)[C@@H](C)CC)[C@@H](C)CC)C(C)C)C(=O)N[C@H](C(=O)N[C@@H](CC(N)=O)C(=O)N[C@@H](CCCCN)C(=O)N[C@@H](CCCCN)C(N)=O)[C@@H](C)CC [Sample 6, KVQIINKKKVQIINKK] (H-KVQIINKKKVQIINKK-NH2) | 1.56 | 6.25 | particularly high antimicrobial activities | – | – | – |
| CC[C@H](C)[C@H](NC(=O)[C@H](CCC(N)=O)NC(=O)[C@@H](NC(=O)[C@@H](N)CCCCN)C(C)C)C(=O)N[C@H](C(=O)N[C@@H](CC(N)=O)C(=O)N[C@@H](CCCCN)C(=O)N[C@@H](CCCCN)C(=O)N[C@@H](CC(C)C)C(=O)N[C@@H](CC(=O)O)C(=O)N[C@H](C(=O)N[C@@H](CO)C(=O)N[C@@H](CC(N)=O)C(=O)N[C@@H](CC(C)C)C(=O)N[C@@H](CCSC)C(=O)N[C@@H](Cc1c[nH]c2ccccc12)C(=O)N[C@@H](Cc1c[nH]c2ccccc12)C(=O)N[C@@H](CC(C)C)C(=O)N[C@@H](CC(C)C)C(N)=O)C(C)C)[C@@H](C)CC [Sample 11, KVQIINKKLDVSNLMWWLL] (H-KVQIINKKLDVSNLMWWLL-NH2) | 12.5 | 25 | particularly high antimicrobial activities | – | – | – |
| CC[C@H](C)[C@H](NC(=O)[C@H](CCC(N)=O)NC(=O)[C@@H](NC(=O)[C@@H](N)CCCCN)C(C)C)C(=O)N[C@H](C(=O)N[C@@H](CC(N)=O)C(=O)N[C@@H](CCCCN)C(=O)N[C@@H](CCCCN)C(N)=O)[C@@H](C)CC [Sample 2, KVQIINKK] (H-KVQIINKK-NH2; N-terminus assumed) | 200 | 200 | – | – | – | – |
